Laboratory results: ChEMBL document CHEMBL1649156, “Antianaerobic activity of sulopenem compared to six other agents” (2009)
≈ marks a conversion by molar mass, not a printed value.

Key:
Type in all cases: functional
[1] = test system: Enterocloster clostridioformis; test: Antimicrobial activity in Clostridium clostridioforme by CLSI agar dilution method
Prevotella baroniae = test: Antimicrobial activity in Prevotella baroniae by CLSI agar dilution method; conditions: Segatella baroniae
[2] = test system: Fusobacterium necrophorum; test: Antimicrobial activity in Fusobacterium necrophorum by CLSI agar dilution method
Prevotella disiens = test: Antimicrobial activity in Prevotella disiens by CLSI agar dilution method
[3] = test system: Prevotella melaninogenica; test: Antimicrobial activity in Prevotella melaninogenica by CLSI agar dilution method
Bacteroides uniformis = test: Antimicrobial activity in Bacteroides uniformis by CLSI agar dilution method
Lactobacillus = test: Antimicrobial activity in Lactobacillus by CLSI agar dilution method
Clostridium butyricum = test: Antimicrobial activity in Clostridium butyricum by CLSI agar dilution method
Finegoldia magna = test: Antimicrobial activity in Finegoldia magna by CLSI agar dilution method
Bifidobacterium = test: Antimicrobial activity in Bifidobacterium by CLSI agar dilution method
Thomasclavelia ramosa = test: Antimicrobial activity in Clostridium ramosum by CLSI agar dilution method
Prevotella intermedia = test: Antimicrobial activity in Prevotella intermedia by CLSI agar dilution method
[Clostridium] innocuum = Antimicrobial activity in Clostridium innocuum by CLSI agar dilution method
Parvimonas micra = test: Antimicrobial activity in Micromonas micros by CLSI agar dilution method
Prevotella corporis = test: Antimicrobial activity in Prevotella corporis by CLSI agar dilution method
Bacteroides ovatus = test: Antimicrobial activity in Bacteroides ovatus by CLSI agar dilution method
Prevotella bergensis = test: Antimicrobial activity in Prevotella bergensis by CLSI agar dilution method; conditions: Hallella bergensis
Clostridioides difficile = test: Antimicrobial activity in Clostridium difficile by CLSI agar dilution method
Anaerococcus prevotii = test: Antimicrobial activity in Anaerococcus prevotii by CLSI agar dilution method
Clostridium cadaveris = test: Antimicrobial activity in Clostridium cadaveris by CLSI agar dilution method
Clostridium tertium = test: Antimicrobial activity in Clostridium tertium by CLSI agar dilution method
Prevotella nigrescens = test: Antimicrobial activity in Prevotella nigrescens by CLSI agar dilution method
[4] = test system: Porphyromonas asaccharolytica; test: Antimicrobial activity in Porphyromonas asaccharolytica by CLSI agar dilution method
[5] = test system: Bacteroides thetaiotaomicron; test: Antimicrobial activity in Bacteroides thetaiotaomicron by CLSI agar dilution method
Hoylesella loescheii = test: Antimicrobial activity in Prevotella loescheii by CLSI agar dilution method
Bacteroides stercoris = test: Antimicrobial activity in Bacteroides stercoris by CLSI agar dilution method
Prevotella bivia = test: Antimicrobial activity in Prevotella bivia by CLSI agar dilution method
Porphyromonas gingivalis = test: Antimicrobial activity in Porphyromonas gingivalis by CLSI agar dilution method
Prevotella buccae = test: Antimicrobial activity in Prevotella buccae by CLSI agar dilution method; conditions: Segatella buccae
Fusobacterium nucleatum = test: Antimicrobial activity in Fusobacterium nucleatum by CLSI agar dilution method
Hoylesella oralis = test: Antimicrobial activity in Prevotella oralis group by CLSI agar dilution method
[6] = test system: Paraclostridium bifermentans; test: Antimicrobial activity in Clostridium bifermentans by CLSI agar dilution method
[7] = test system: Parabacteroides distasonis; test: Antimicrobial activity in Bacteroides distasonis by CLSI agar dilution method
Eggerthella lenta = test: Antimicrobial activity in Eggerthella lenta by CLSI agar dilution method
Tissierella praeacuta = test: Antimicrobial activity in Clostridium hastiforme by CLSI agar dilution method
Clostridium perfringens = test: Antimicrobial activity in Clostridium perfringens by CLSI agar dilution method
Cutibacterium acnes = test: Antimicrobial activity in Propionibacterium acnes by CLSI agar dilution method
Clostridium sp. = test: Antimicrobial activity in Clostridium sp. by CLSI agar dilution method
Prevotella sp. = test: Antimicrobial activity in Prevotella sp.by CLSI agar dilution method
Phocaeicola vulgatus = test: Antimicrobial activity in Bacteroides vulgatus by CLSI agar dilution method
Bacteroides fragilis = test: Antimicrobial activity in Bacteroides fragilis by CLSI agar dilution method
[8] = test system: Peptoniphilus asaccharolyticus; test: Antimicrobial activity in Peptoniphilus asaccharolyticus by CLSI agar dilution method
Prevotella veroralis = test: Antimicrobial activity in Prevotella veroralis by CLSI agar dilution method
[9] = test system: Peptostreptococcus anaerobius; test: Antimicrobial activity in Peptostreptococcus anaerobius by CLSI agar dilution method
Fusobacterium mortiferum = test: Antimicrobial activity in Fusobacterium mortiferum by CLSI agar dilution method
[10] = test system: Paeniclostridium sordellii; test: Antimicrobial activity in Clostridium sordellii by CLSI agar dilution method; conditions: Paraclostridium sordellii
Fusobacterium varium = test: Antimicrobial activity in Fusobacterium varium by CLSI agar dilution method
Prevotella denticola = test: Antimicrobial activity in Prevotella denticola by CLSI agar dilution method
Anaerococcus tetradius = test: Antimicrobial activity in Anaerococcus tetradius by CLSI agar dilution method
Prevotella salivae = test: Antimicrobial activity in Prevotella salivae by CLSI agar dilution method; conditions: Segatella salivae
Actinomyces = test: Antimicrobial activity in Actinomyces by CLSI agar dilution method

C[C@@H](O)[C@H]1C(=O)N2C(C(=O)O)=C(SCCNC=N)C[C@H]12 [IMIPENEM ANHYDROUS]
MIC [1]: 1 µg/mL (≈ 3.34 µM)
MIC (Prevotella baroniae): 0.03 µg/mL (≈ 0.1 µM)
MIC [2]: ≤ 0.016 µg/mL
MIC50 [2]: ≤ 0.016 µg/mL
MIC (Prevotella disiens): 0.03 µg/mL (≈ 0.1 µM)
MIC50 (Prevotella disiens): 0.06 µg/mL (≈ 0.2 µM)
MIC50 [3]: 0.03 µg/mL (≈ 0.1 µM)
MIC90 [3]: 0.125 µg/mL (≈ 0.418 µM)
MIC (Bacteroides uniformis): 0.25 µg/mL (≈ 0.835 µM)
MIC50 (Bacteroides uniformis): 0.25 µg/mL (≈ 0.835 µM)
MIC50 (Lactobacillus): 1 µg/mL (≈ 3.34 µM)
MIC90 (Lactobacillus): 2 µg/mL (≈ 6.68 µM)
MIC (Clostridium butyricum): 0.5 µg/mL (≈ 1.67 µM)
MIC (Finegoldia magna): 0.06 µg/mL (≈ 0.2 µM)
MIC50 (Finegoldia magna): 0.06 µg/mL (≈ 0.2 µM)
MIC90 (Finegoldia magna): 0.125 µg/mL (≈ 0.418 µM)
MIC (Bifidobacterium): 0.03 µg/mL (≈ 0.1 µM)
MIC50 (Bifidobacterium): 0.03 µg/mL (≈ 0.1 µM)
MIC90 (Bifidobacterium): 0.125 µg/mL (≈ 0.418 µM)
MIC (Thomasclavelia ramosa): 0.25 µg/mL (≈ 0.835 µM)
MIC (Prevotella intermedia): ≤ 0.016 µg/mL
MIC50 (Prevotella intermedia): ≤ 0.016 µg/mL
MIC90 (Prevotella intermedia): 0.06 µg/mL (≈ 0.2 µM)
MIC ([Clostridium] innocuum): 0.125 µg/mL (≈ 0.418 µM)
MIC (Parvimonas micra): 0.03 µg/mL (≈ 0.1 µM)
MIC50 (Parvimonas micra): 0.03 µg/mL (≈ 0.1 µM)
MIC90 (Parvimonas micra): 0.06 µg/mL (≈ 0.2 µM)
MIC (Prevotella corporis): ≤ 0.016 µg/mL
MIC50 (Prevotella corporis): ≤ 0.016 µg/mL
MIC (Bacteroides ovatus): 0.125 µg/mL (≈ 0.418 µM)
MIC50 (Bacteroides ovatus): 0.125 µg/mL (≈ 0.418 µM)
MIC90 (Bacteroides ovatus): 0.25 µg/mL (≈ 0.835 µM)
MIC (Prevotella bergensis): 0.06 µg/mL (≈ 0.2 µM)
MIC50 (Clostridioides difficile): 4 µg/mL (≈ 13.4 µM)
MIC90 (Clostridioides difficile): 4 µg/mL (≈ 13.4 µM)
MIC (Anaerococcus prevotii): ≤ 0.016 µg/mL
MIC (Clostridium cadaveris): 0.125 µg/mL (≈ 0.418 µM)
MIC (Clostridium tertium): 0.25 µg/mL (≈ 0.835 µM)
MIC50 (Clostridium tertium): 0.25 µg/mL (≈ 0.835 µM)
MIC (Prevotella nigrescens): ≤ 0.016 µg/mL
MIC50 (Prevotella nigrescens): ≤ 0.016 µg/mL
MIC90 (Prevotella nigrescens): 0.06 µg/mL (≈ 0.2 µM)
MIC [4]: ≤ 0.016 µg/mL
MIC [5]: 0.25 µg/mL (≈ 0.835 µM)
MIC50 [5]: 0.25 µg/mL (≈ 0.835 µM)
MIC90 [5]: 0.25 µg/mL (≈ 0.835 µM)
MIC (Hoylesella loescheii): 0.03 µg/mL (≈ 0.1 µM)
MIC (Bacteroides stercoris): 0.25 µg/mL (≈ 0.835 µM)
MIC50 (Bacteroides stercoris): 0.25 µg/mL (≈ 0.835 µM)
MIC (Prevotella bivia): 0.03 µg/mL (≈ 0.1 µM)
MIC50 (Prevotella bivia): 0.03 µg/mL (≈ 0.1 µM)
MIC90 (Prevotella bivia): 0.25 µg/mL (≈ 0.835 µM)
MIC (Porphyromonas gingivalis): ≤ 0.016 µg/mL
MIC (Prevotella buccae): 0.03 µg/mL (≈ 0.1 µM)
MIC50 (Prevotella buccae): 0.03 µg/mL (≈ 0.1 µM)
MIC90 (Prevotella buccae): 0.125 µg/mL (≈ 0.418 µM)
MIC50 (Fusobacterium nucleatum): 0.03 µg/mL (≈ 0.1 µM)
MIC90 (Fusobacterium nucleatum): 0.06 µg/mL (≈ 0.2 µM)
MIC (Hoylesella oralis): ≤ 0.016 µg/mL
MIC [6]: 0.25 µg/mL (≈ 0.835 µM)
MIC50 [7]: 0.5 µg/mL (≈ 1.67 µM)
MIC90 [7]: 1 µg/mL (≈ 3.34 µM)
MIC50 (Eggerthella lenta): 0.5 µg/mL (≈ 1.67 µM)
MIC90 (Eggerthella lenta): 0.5 µg/mL (≈ 1.67 µM)
MIC (Tissierella praeacuta): 2 µg/mL (≈ 6.68 µM)
MIC50 (Clostridium perfringens): 0.125 µg/mL (≈ 0.418 µM)
MIC90 (Clostridium perfringens): 0.125 µg/mL (≈ 0.418 µM)
MIC50 (Cutibacterium acnes): 0.03 µg/mL (≈ 0.1 µM)
MIC90 (Cutibacterium acnes): 0.03 µg/mL (≈ 0.1 µM)
MIC50 (Clostridium sp.): 1 µg/mL (≈ 3.34 µM)
MIC90 (Clostridium sp.): 1 µg/mL (≈ 3.34 µM)
MIC (Prevotella sp.): 0.03 µg/mL (≈ 0.1 µM)
MIC50 (Phocaeicola vulgatus): 0.5 µg/mL (≈ 1.67 µM)
MIC90 (Phocaeicola vulgatus): 0.5 µg/mL (≈ 1.67 µM)
MIC50 (Bacteroides fragilis): 0.125 µg/mL (≈ 0.418 µM)
MIC90 (Bacteroides fragilis): 0.25 µg/mL (≈ 0.835 µM)
MIC [8]: ≤ 0.016 µg/mL
MIC50 [8]: ≤ 0.016 µg/mL
MIC (Prevotella veroralis): 0.03 µg/mL (≈ 0.1 µM)
MIC [9]: 0.06 µg/mL (≈ 0.2 µM)
MIC50 [9]: 0.06 µg/mL (≈ 0.2 µM)
MIC90 [9]: 1 µg/mL (≈ 3.34 µM)
MIC50 (Fusobacterium mortiferum): 0.5 µg/mL (≈ 1.67 µM)
MIC90 (Fusobacterium mortiferum): 1 µg/mL (≈ 3.34 µM)
MIC [10]: 0.06 µg/mL (≈ 0.2 µM)
MIC (Fusobacterium varium): 0.5 µg/mL (≈ 1.67 µM)
MIC50 (Fusobacterium varium): 0.5 µg/mL (≈ 1.67 µM)
MIC90 (Fusobacterium varium): 1 µg/mL (≈ 3.34 µM)
MIC50 (Prevotella denticola): 0.03 µg/mL (≈ 0.1 µM)
MIC90 (Prevotella denticola): 0.125 µg/mL (≈ 0.418 µM)
MIC50 (Anaerococcus tetradius): 0.03 µg/mL (≈ 0.1 µM)
MIC90 (Anaerococcus tetradius): 0.06 µg/mL (≈ 0.2 µM)
MIC (Prevotella salivae): 0.03 µg/mL (≈ 0.1 µM)
MIC (Actinomyces): 0.06 µg/mL (≈ 0.2 µM)
MIC50 (Actinomyces): 0.125 µg/mL (≈ 0.418 µM)
